In US7482328B2, “Antimicrobial polypeptide and utilization thereof” (Toagosei Co., Ltd., priority 2002, dated 2009):
No end group written: not given here.

Legend:
Format in all cases: cell-based
[1] = tested on: gram-negative bacteria (E. coli) and gram-positive bacteria (S. aureus); test: antimicrobial test of Example 2, results summed up in words; settings: summary of Table 2, E. coli and S. aureus
Method: (§1) Regarding the antimicrobial polypeptide of the present invention (samples 1 to 33) and the polypeptides of comparative samples 1 to 3, the antimicrobial activities (minimum inhibitory concentration: MIC) with respect to gram-negative bacteria (E. coli) and gram-positive bacteria (S. aureus) were determined by a liquid medium dilution technique using a 96-well microplate.
(§2) More specifically, liquid bouillon media (“NUTRIENT BROTH Dehydraged” manufactured by DIFCO) in a polypeptide concentration of 500, 250, 125, 62.5, 31.3, 15.6, 7.8, 3.9, 1.9, 1.0 and 0.5 μM were prepared, and filled in a 96-well microplate. On the other hand, bacteria suspension (about 2×10^6 cells/mL) that had been stationary cultured at 37° C. for 18 hours with LB Broth, Lennox (manufactured by DIFCO) were inoculated to each well of the 96-well microplate in an equal amount to that of the pharmaceutical solution (the above-described polypeptide-containing bouillon medium). After inoculation, culture was started in an incubator at 37° C., and it was examined based on the turbidity after 24 hours and 48 hours whether or not bacteria are present. The minimum of the polypeptide concentrations in which no increase in the turbidity caused by bacteria at the time of measurement was observed was defined as MIC in this example.

[2] = tested on: E. coli
Method: as §1, §2
(§3) The unit of MIC in Table 2 is μM. […]

[3] = tested on: S. aureus
Method: as §1, §2, §3

[4] = tested on: Escherichia coli O157:H7 sakai; settings: O157:H7, 24 h
Method: as §2
(§4) Next, regarding the polypeptides of the samples 16, 17, 10, 14, and 20, the same antimicrobial test (MIC measurement test) as in Example 2 was performed with respect to various bacteria (see Table 3), and the antimicrobial spectra of these polypeptides were evaluated.

[5] = tested on: Salmonella typhimurium IFO1324; settings: murium IFO1324, 24 h
Method: as §2, §4

[6] = tested on: Proteus vulgaris ATCC13315; settings: ATCC13315, 24 h
Method: as §2, §4

[7] = tested on: Bacillus subtilis ATCC6633; settings: ATCC6633, 24 h
Method: as §2, §4

[8] = tested on: Micrococcus luteus IFO12708; settings: IFO12708, 24 h
Method: as §2, §4

[9] = tested on: Bacillus cereus IFO3001; settings: IFO3001, 24 h
Method: as §2, §4

[10] = tested on: Salmonella enteritidis IFO3313; settings: IFO3313, 24 h
Method: as §2, §4

[11] = tested on: Bacillus brevis IFO15304
Method: as §2, §4

[12] = tested on: Bacillus pumilus IFO3813
Method: as §2, §4

[13] = tested on: Staphylococcus aureus IID1677 (MRSA); settings: IID1677, 24 h
Method: as §2, §4

[14] = tested on: Staphylococcus aureus COL (MRSA)
Method: as §2, §4

[15] = tested on: Klebsiella pneumoniae ATCC4352; settings: ATCC4352, 24 h
Method: as §2, §4

[16] = tested on: Staphylococcus aureus IFO12732; settings: IFO12732, 24 h
Method: as §2, §4

[17] = tested on: Pseudomonas aeruginosa ATCC10145; settings: ATCC10145, 24 h
Method: as §2, §4

[18] = tested on: Escherichia coli IFO12713; settings: IFO12713, 24 h
Method: as §2, §4

[19] = tested on: Bacillus cereus IFO15305; settings: IFO15305, 24 h
Method: as §2, §4

[20] = tested on: Staphylococcus aureus RN450 (*MSSA); settings: RN450 (*, 24 h)
Method: as §2, §4

[21] = tested on: Pseudomonas aeruginosa IFO3080; settings: IFO3080, 24 h
Method: as §2, §4

[22] = tested on: Bacillus subtilis IFO3134; settings: IFO3134, 24 h
Method: as §2, §4

| Compound | antimicrobial activities (in words) [1] | antimicrobial activity (MIC) E. coli after 24h [2] [µM] | antimicrobial activity (MIC) E. coli after 48h [2] [µM] | antimicrobial activity (MIC) S. aureus after 24h [3] [µM] | antimicrobial activity (MIC) S. aureus after 48h [3] [µM] | also measured |
| --- | --- | --- | --- | --- | --- | --- |
| N=C(N)NCCC[C@H](NC(=O)[C@H](CCCNC(=N)N)NC(=O)[C@H](CCCNC(=N)N)NC(=O)[C@H](CCC(N)=O)NC(=O)[C@H](CCCNC(=N)N)NC(=O)[C@H](CCCNC(=N)N)NC(=O)[C@H](CCCCN)NC(=O)[C@H](CCCCN)NC(=O)[C@@H](N)CCCNC(=N)N)C(=O)O [sample 5, RKKRRQRRR] | particularly high antimicrobial activities | – | – | – | – | – |
| LALKLAGLDIRKKKRKV [sample 15, LALKLAGLDIRKKKRKV] | high antimicrobial activities | 3.9 | 3.9 | 1.9 | 3.9 | – |
| PKKKRKVPKKKRKV [sample 16, PKKKRKVPKKKRKV] | – | – | – | – | – | antimicrobial activity after 24 hours: MIC [4]: 17.9 µM |
| PPRKKRTVV [sample 4, PPRKKRTVV] | – | 250.0 | >500 | 125.0 | 125.0 | – |
| PRRRK [sample 6, PRRRK] | – | >500 | >500 | 250.0 | 500.0 | – |
| PRRRK-NH2 [sample 23, PRRRK] | – | 31.3 | 31.3 | 7.8 | 15.6 | – |
| PRRRKPRRRK [sample 18, PRRRKPRRRK] | – | 3.9 | 3.9 | 7.8 | 7.8 | – |
| RIRKKLR [sample 3, RIRKKLR] | – | 62.5 | 62.5 | 62.5 | 62.5 | – |
| RIRKKLRRIRKKLR [sample 17, RIRKKLRRIRKKLR] | – | – | 3.9 | 3.9 | 3.9 | antimicrobial activity after 24 hours: MIC [5]: 4.1 µM; antimicrobial activity after 24 hours: MIC [6]: 8.1 µM; antimicrobial activity after 24 hours: MIC [4]: 8.1 µM; antimicrobial activity after 24 hours: MIC [7]: 1.0 µM; antimicrobial activity after 24 hours: MIC [8]: 4.1 µM; antimicrobial activity after 24 hours: MIC [9]: >260.3 µM; antimicrobial activity after 24 hours: MIC [10]: 4.1 µM; antimicrobial activity after 24 hours: MIC [11]: >260.3 µM; antimicrobial activity after 24 hours: MIC [12]: 16.3 µM; antimicrobial activity after 24 hours: MIC [13]: 8.1 µM; antimicrobial activity after 24 hours: MIC [14]: 16.3 µM; antimicrobial activity after 24 hours: MIC [15]: 8.1 µM; antimicrobial activity after 24 hours: MIC [16]: 2.0 µM; antimicrobial activity after 24 hours: MIC [17]: 8.1 µM; antimicrobial activity after 24 hours: MIC [18]: 8.1 µM; antimicrobial activity after 24 hours: MIC [19]: >260.3 µM; antimicrobial activity after 24 hours: MIC [20]: 32.5 µM; antimicrobial activity after 24 hours: MIC [21]: 8.1 µM; antimicrobial activity after 24 hours: MIC [22]: 0.5 µM |
| RKKKRKV-NH2 [sample 24, RKKKRKV-CONH2] | higher antimicrobial activities | 3.9 | 15.6 | 1.0 | 1.0 | – |
| RKKKRKV-OH [sample 7, RKKKRKV] | – | 62.5 | 500.0 | 15.6 | 31.3 | – |
| RKKKRKVKRKKKR [sample 29, RKKKRKVKRKKKR] | particularly high antimicrobial activities | 1.0 | 1.0 | 3.9 | 7.8 | – |
| RKKKRKVLALKLAGLDI [sample 14, RKKKRKVLALKLAGLDI] | high antimicrobial activities | 3.9 | 3.9 | 1.0 | 1.9 | antimicrobial activity after 24 hours: MIC [5]: >256.3 µM; antimicrobial activity after 24 hours: MIC [6]: 64.1 µM; antimicrobial activity after 24 hours: MIC [4]: 8.0 µM; antimicrobial activity after 24 hours: MIC [7]: 1.0 µM; antimicrobial activity after 24 hours: MIC [8]: 4.0 µM; antimicrobial activity after 24 hours: MIC [9]: 32.0 µM; antimicrobial activity after 24 hours: MIC [10]: 32.0 µM; antimicrobial activity after 24 hours: MIC [11]: 128.2 µM; antimicrobial activity after 24 hours: MIC [12]: 4.0 µM; antimicrobial activity after 24 hours: MIC [14]: 16.0 µM; antimicrobial activity after 24 hours: MIC [15]: 32.0 µM; antimicrobial activity after 24 hours: MIC [17]: 32.0 µM; antimicrobial activity after 24 hours: MIC [18]: 8.0 µM; antimicrobial activity after 24 hours: MIC [19]: 64.1 µM; antimicrobial activity after 24 hours: MIC [20]: 16.0 µM; antimicrobial activity after 24 hours: MIC [21]: 16.0 µM; antimicrobial activity after 24 hours: MIC [22]: 1.0 µM |
| RKKKRKVLPPLERLTL [sample 12, RKKKRKVLPPLERLTL] | – | 15.6 | 15.6 | 3.9 | 3.9 | – |
| RKKKRKVRKKKRKV-NH2 [sample 25, RKKKRKVRKKKRKV-CONH2] | – | 3.9 | 3.9 | 1.9 | 1.9 | – |
| RKKKRKVRKKKRKVRKKKRKV [sample 21] | – | 1.9 | 1.9 | 0.5 | 0.5 | – |
| RKKKRKVRKKKRKVRKKKRKVRKKKRKV [sample 22] | – | 1.9 | 1.9 | 1.0 | 1.0 | – |
| RKKKRKVVKRKKKR [sample 28, RKKKRKVVKRKKKR] | particularly high antimicrobial activities | 1.0 | 1.0 | 3.9 | 7.8 | – |
| RQARRNRRRRWR [sample 2, RQARRNRRRRWR] | particularly high antimicrobial activities | – | – | – | – | – |
| RQARRNRRRRWRLPPLERLTLD [sample 10] | high antimicrobial activities | – | – | – | – | – |
